Residues, ends and D or L forms follow the SMILES beside them. *: point of attachment. Decanoyl = CCCCCCCCCC(=O)*
Columns and labels:
[1] = test system: HL-60 cells transfected with Bcl-2 to overexpress Bcl-2; test: DNA fragmentation apoptosis assay; type: cell-based, human; details: 50 μM, 2 hours, Bcl-2-transfected HL-60 cells, FIG. 6
[2] = test system: HL-60 cell line (parent line); details: 50 μM, parent HL-60 line; cited from earlier work
[3] = test system: Bcl-2-transfected HL-60 line; details: 50 μM (same concentration); cited from earlier work
Bcl-2 protein = Bcl-2 protein (Homo sapiens, UniProt P10415); test: Fluorescence polarization competition binding against Flu-SEQ ID NO:30 (BH3 peptides); details: FIG. 3; for inhibition of Bcl-2 binding of Flu-SEQ ID NO:30: competition curve; for relative competition to Flu-SEQ ID NO:30 binding: comparison among BH3 peptides
GST-Bcl-2 protein = GST-Bcl-2 protein (Homo sapiens, UniProt P10415); test: Fluorescence polarization competition binding assay of decyl-SEQ ID NO:56 to GST-Bcl-2
Method: The binding equation proposed by Weinhold et al., J. Am. Chem. Soc. 114:9270-9275, 1992, was used to derive the dissociation constant KD of an inhibitor from petition inhibition curve, [formula]
The Ec50 for the Bcl-2 binding of decyl-SEQ ID NO:56 was 0.13 μM, indicating strong binding.
The binding of the peptide conjugate decyl-SEQ ID NO:56 to the Bcl-2 protein was assayed by the following competition assay. […] The following micromolar concentrations of decyl-K1285 were then incubated with the mixture for 30 minutes at 37° C. (0.005, 0.01, 0.02, 0.04 0.08 0.16 and 0.32).

Chain of Bcl-2 protein (P10415 whole entry): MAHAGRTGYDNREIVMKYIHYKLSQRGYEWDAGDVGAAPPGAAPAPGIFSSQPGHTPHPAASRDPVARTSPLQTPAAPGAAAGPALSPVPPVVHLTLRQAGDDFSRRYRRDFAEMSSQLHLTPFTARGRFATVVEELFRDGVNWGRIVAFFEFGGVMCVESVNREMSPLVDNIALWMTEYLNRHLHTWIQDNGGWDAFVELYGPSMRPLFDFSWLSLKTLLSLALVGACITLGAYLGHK
Chain of GST-Bcl-2 protein (P10415 1-205 limits assumed): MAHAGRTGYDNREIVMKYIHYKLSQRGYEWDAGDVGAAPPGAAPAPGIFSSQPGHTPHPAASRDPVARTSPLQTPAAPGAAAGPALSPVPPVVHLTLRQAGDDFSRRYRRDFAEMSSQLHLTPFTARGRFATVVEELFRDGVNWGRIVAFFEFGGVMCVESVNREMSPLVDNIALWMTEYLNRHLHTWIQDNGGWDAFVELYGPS

Row | Compound | DNA fragmentation (marker of apoptosis) [1] | inhibition of Bcl-2 binding of Flu-SEQ ID NO:30 (Bcl-2 protein) | also measured
1 | CCCCCCCCCC(=O)O [decanoic acid, reference compound] | observed in the decyl-SEQ ID NO:56-treated cells only |  | 
2 | COc1cc([C@@H]2c3cc4c(cc3[C@@H](O[C@@H]3O[C@@H]5CO[C@@H](C)O[C@H]5[C@H](O)[C@H]3O)[C@H]3COC(=O)[C@H]23)OCO4)cc(OC)c1O [etoposide] |  |  | sensitivity of cells to the drug [2]: sensitive; sensitivity of cells to the drug [3]: resistant
3 | GQVGRQMIIGDDINR (GQVGRQAAIIGDDINR) [SEQ ID NO:58, reference compound] |  | no significant effect | 
4 | KKLSECLKRIGDELDS [SEQ ID NO:32] |  | clear dose-dependent inhibition | relative competition to Flu-SEQ ID NO:30 binding (Bcl-2 protein): weaker activity
5 | KNLWAAQRYGRELRRMSDEFEGSFKGL [SEQ ID NO:56] | observed in the decyl-SEQ ID NO:56-treated cells only |  | 
6 | CCCCCCCCCC(=O)N[C@@H](CCCCN)C(=O)N[C@@H](CC(N)=O)C(=O)N[C@@H](CC(C)C)C(=O)N[C@@H](Cc1c[nH]c2ccccc12)C(=O)N[C@@H](C)C(=O)N[C@@H](C)C(=O)N[C@@H](CCC(N)=O)C(=O)N[C@@H](CCCNC(=N)N)C(=O)N[C@@H](Cc1ccc(O)cc1)C(=O)NCC(=O)N[C@@H](CCCNC(=N)N)C(=O)N[C@@H](CCC(=O)O)C(=O)N[C@@H](CC(C)C)C(=O)N[C@@H](CCCNC(=N)N)C(=O)N[C@@H](CCCNC(=N)N)C(=O)N[C@@H](CCSC)C(=O)N[C@@H](CO)C(=O)N[C@@H](CC(=O)O)C(=O)N[C@@H](CCC(=O)O)C(=O)N[C@@H](Cc1ccccc1)C(=O)N[C@@H](CCC(=O)O)C(=O)NCC(=O)N[C@@H](CO)C(=O)N[C@@H](Cc1ccccc1)C(=O)N[C@@H](CCCCN)C(=O)NCC(=O)N[C@@H](CC(C)C)C(=O)O [decyl-SEQ ID NO:56] (Decanoyl-KNLWAAQRYGRELRRMSDEFEGSFKGL-OH; C-terminus assumed) | DNA fragmentation was observed |  | EC50 (GST-Bcl-2 protein): 130 nM
7 | NLWAAQRYGRELRRMSDEFEGSFKGL [SEQ ID NO:1] |  | clear dose-dependent inhibition | relative competition to Flu-SEQ ID NO:30 binding (Bcl-2 protein): strongest competition

Reference: patent US6713280B1, “Enhancement of peptide cellular uptake” (Thomas Jefferson University, priority 1999, dated 2004)
